This note sets out measurements from article PMC10073126, “Levosimendan inhibits disulfide tau oligomerization and ameliorates tau pathology in Tau^P301L-BiFC mice” (Experimental & Molecular Medicine, 2023).

The term GI50 denotes the concentration at which growth is held to half of that of the control. Read a high GI50 as less potent growth inhibition.

In data set [1] the target is T1, tauK18 (Homo sapiens, UniProt P10636).
T1 construct: under in vitro conditions using a purified tauK18 fragment; 6xHis; made in house; host or cells: E. coli BL21 (DE3)
The experiment in a line: In vitro tau aggregation assay (thioflavin S). To be noted: heparin-induced, 5 days. It is filed as biochemical. How it is done: To evaluate the inhibitory effect of drugs on tau aggregation, tauK18 protein (0.5 mg/mL) was incubated with each drug at various concentrations in the presence of DTT (100 μM) and heparin (0.1 mg/mL) at 37 °C for 5 days with vigorous shaking (220 rpm). For the tau disaggregation assay, the preformed aggregation mixture of tauK18 was incubated with each drug at 37 °C for 4 days with vigorous shaking (220 rpm). On the final day of incubation, the level of β-sheet aggregates was evaluated by thioflavin S (ThS) assay. For the ThS assay, 5 μL of each mixture was transferred to a black 384-well plate with 45 μL of PBS containing 10 μM ThS. ThS fluorescence (λex = 430 nm, and λem = 500 nm) was measured by using a Flexstation2 spectrophotometer (Molecular Devices).

In data set [2] the target is T2, tau (Homo sapiens, UniProt P10636). Description: Tau-BiFC response in tau-BiFC cells (high-content imaging). To be noted: 100 μM, 48 h, tauK18^P301L. It counts as cell-based. The arrangement: expressed in transfected cells; host or cells: HEK293 Tau-BiFC cells (G418-selected).
For a further data set, the target named is tauK18 fragment. Description: non-reducing SDS-PAGE with Coomassie staining (disulfide-linked oligomers); tauK18 0.5 mg/mL in PBS pH 7.4 with DTT (100 uM) and heparin (0.1 mg/mL), RT, 5 h, shaking; 4-20% gel; DMSO control, MB, LMTM or levosimendan (10, 30, 100 uM).
The target of the next data set is T3, tau cysteines (Homo sapiens, UniProt P10636).
T3 construct: 6xHis; made in house; host or cells: E. coli BL21 (DE3)
Description: Covalent binding to tau (14C autoradiography, MALDI-TOF of R1-R4 peptides). To be noted: 720 μM with tauK18 72 μM, 2 h, RT. How it is done:
TauK18 (1 mg/mL, 72 μM) was incubated with ^14C-levosimendan (720 μM) in PBS containing 5% DMSO at RT for 2 h. Then, the mixture was separated on a 15% SDS–PAGE gel under nonreducing conditions and stained with Coomassie blue. For autoradiography, the SDS–PAGE gel was transferred to a PVDF membrane and scanned by Typhoon FLA 7000 IP (GE Healthcare).
Each repeat domain (R1, R2, R3, R4, R2-C291S or R3-C322S, 150 μM) was incubated with levosimendan (molar ratio 1:10 of a tau repeat domain: levosimendan) at RT for 37 h. The samples were mixed with matrix solution (10 mg mL^−1 sinapinic acid in 0.1% (v/v) trifluoroacetic acid/CAN) at a ratio of 1:1. The mixtures were directly spotted onto the MALDI target and dried. Mass spectra were acquired in reflection/linear positive ion mode in the m/z range of 2000–100,000 using an Ultraflex III TOF/TOF mass spectrometer controlled by Flex Control 3.0 (Bruker Daltonics). The default operating conditions were as follows: ion source 1, 25.0 kV; ion source 2, 23.0 kV; lens voltage, 6.0 kV; laser repetition rate = 100 Hz. All spectra were generated automatically in the instrument software and based on averaging 1000 shots from 10 nonoverlapping positions (100 shots/position).

Data set [3] deals with T1, tauK18. The experiment in a line: TauK18 oligomerization assay in vitro (SDS-PAGE). It counts as biochemical. To be noted: 100 μM, 5 h, nonreducing SDS-PAGE; DMSO control 50 ± 1.1%. How it is done:
To induce tau oligomerization, tauK18 (0.5 mg/mL dissolved in PBS, pH 7.4) was incubated with each drug in the presence of DTT (100 μM) and heparin (0.1 mg/mL) at RT for 5 h with vigorous shaking. Then, tau oligomers were separated on 4–20% SDS‒PAGE gels under reducing and nonreducing conditions and visualized by Coomassie blue staining.

Data set [4] has as its target T2, tau. Description: Tau immunoblot of tau-BiFC cell lysates (reducing and nonreducing SDS-PAGE). To be noted: 5 μM, tauK18^P301L-activated tau-BiFC cells.
Description: For reducing SDS‒PAGE analysis, cell or brain lysates were mixed with 4x Laemmli buffer containing 10% β-mercaptoethanol (BME) and boiled at 97 °C for 5 min. For nonreducing SDS‒PAGE analysis, cell or brain lysates were mixed with 4x Laemmli buffer without BME. For immunoblot analysis, 10 μg of each lysate was separated on a 10% SDS–PAGE gel and transferred to a PVDF membrane. The levels of total tau and phosphorylated tau were detected by anti-tau antibodies against 2B11 (IBL), Tau5 (Abcam), pSer199 (Abcam), pSer396 (Abcam), and pThr205 (Abcam). […] Band intensity was quantified using ImageJ software (NIH). All data were normalized to β-actin.
The nature of data set [5]: Cell viability of tau-BiFC cells (number of nuclei). It counts as cell-based, human. To be noted: human, HEK293 Tau-BiFC cells, 48 h of treatment. As to the method:
HEK293 Tau-BiFC cells were maintained in Dulbecco’s modified Eagle medium (DMEM) supplemented with 10% fetal bovine serum (FBS), 100 units/mL penicillin, 100 µg/mL streptomycin and 100 µg/mL Geneticin (G418) in a humidified atmosphere containing 5% CO2 at 37 °C. Tau-BiFC cells were activated by treatment with FK (30 μM) or tauK18^P301L (5 μg/mL).
For screening of FDA-approved & Passed Phase I Drug Library, tau-BiFC cells were plated on µ-clear 384-well plates. The next day, the cells were cotreated with forskolin and 1,018 library compounds at a concentration of 10 µM. MB and LMTM (3 µM) were used as positive controls. After 46 h, nuclei were counterstained with Hoechst (Invitrogen). BiFC (λex = 460–490 nm and λem = 500–550 nm) and Hoechst (λex = 355–385 nm and λem = 430–500 nm) fluorescence images were acquired automatically by using Operetta® (PerkinElmer). BiFC fluorescence intensity and the number of nuclei were quantified using Harmony 3.1 software (PerkinElmer). Integrated tau-BiFC intensity represents the area of selected cell X mean fluorescence intensity. The means and standard deviations (S.D.) of BiFC fluorescence intensities and the number of nuclei were plotted using GraphPad Prism.

In data set [6] the test system is primary hippocampal neurons. The experiment in a line: NeuO staining, number of neurons and neurite lengths. It counts as cell-based. The following applies: 3 μM, tauK18^P301L, 48 h. How it is done: (§1) Primary hippocampal neurons were isolated from Day 18 embryonic Sprague‒Dawley rat brains as described previously. The neurons were seeded at a density of 3.5 × 10^5 cells per well on a poly-D-lysine-coated 6-well plate and maintained in neurobasal medium at 37 °C in a humidified atmosphere of 5% CO2. The neurobasal medium contained 2% B27 supplement, 0.5 mM GlutaMAX, 100 units/mL penicillin, and 100 μg/mL streptomycin. Every 3 days, 50% of the medium was replaced with fresh neurobasal medium. At DIV10, neurons were incubated with MB, LMTM (3 µM), or levosimendan (10 µM) in the presence of tauK18^P301L (10 µg/mL) for 48 h.
At DIV10, neurons grown on a 96-well plate were treated with MB, LMTM (3 µM), or levosimendan (10 µM) followed by tauK18^P301L activation. After 48 h, the neurons were stained with NueO (50 nM), a neuron-selective probe. NeuO fluorescence (λex = 460–490 nm and λem = 518–580 nm) images were acquired by using Operetta® (PerkinElmer). The number of neurons and total lengths of neurites were quantified by Harmony 3.1 software (PerkinElmer). Error bars represent the standard deviations (S.D.) of four replicate experiments.

Data set [7] concerns tau. The experiment in a line: Tau immunoblot of primary hippocampal neuron lysates. It counts as cell-based, rat. To be noted: 3 μM, nonreducing SDS-PAGE, primary neurons, tauK18^P301L; control 1.8 ± 0.3-fold. As to the method: Band intensity was quantified using ImageJ software (NIH). All data were normalized to β-actin.
as §1
A general note: In western blotting, separated proteins are transferred to a membrane and probed.

The test system of another data set is Tau-BiFC cells. The experiment in a line: Flow cytometry analysis of tau-BiFC cells. It counts as cell-based, human. To be noted: drug 5 μM with tauK18^P301L. How it is done: After 24 h, BiFC cells were collected and subjected to flow cytometry analysis using a BD FACSLyric^TM cytometer (BD Biosciences). A total of 50,000 events were acquired per sample. All samples were gated using the same gating tree and gate positions: side scatter area (SSC-A) vs. forward scatter area (FSC-A) for viable and singlet cell populations. BiFC fluorescence was excited by a 488 nm wave laser and collected through a 527/32 bandpass filter.
(A flow cytometer gives signals particle by particle.)

T2 sequence (P10636 1-441 isoform P10636-8): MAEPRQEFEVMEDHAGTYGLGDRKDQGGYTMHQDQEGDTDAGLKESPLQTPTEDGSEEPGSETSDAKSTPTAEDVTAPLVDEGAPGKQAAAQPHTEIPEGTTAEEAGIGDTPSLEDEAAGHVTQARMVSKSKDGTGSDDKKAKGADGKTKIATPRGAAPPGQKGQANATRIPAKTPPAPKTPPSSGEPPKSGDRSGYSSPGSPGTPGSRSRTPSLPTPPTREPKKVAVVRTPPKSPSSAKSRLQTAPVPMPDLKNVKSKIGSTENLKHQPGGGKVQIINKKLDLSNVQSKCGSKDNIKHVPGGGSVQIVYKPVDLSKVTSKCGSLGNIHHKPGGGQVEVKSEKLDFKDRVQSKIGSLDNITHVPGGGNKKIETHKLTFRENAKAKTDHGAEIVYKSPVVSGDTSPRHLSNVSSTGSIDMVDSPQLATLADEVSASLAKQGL
T2 sequence (P10636 1-441 isoform P10636-8): as above
T1 sequence (P10636 561-685 limits assumed): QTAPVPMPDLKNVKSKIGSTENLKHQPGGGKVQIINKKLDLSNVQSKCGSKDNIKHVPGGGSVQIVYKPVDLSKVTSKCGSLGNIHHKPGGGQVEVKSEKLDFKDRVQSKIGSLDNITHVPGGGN
T3 sequence (P10636 561-689 limits assumed): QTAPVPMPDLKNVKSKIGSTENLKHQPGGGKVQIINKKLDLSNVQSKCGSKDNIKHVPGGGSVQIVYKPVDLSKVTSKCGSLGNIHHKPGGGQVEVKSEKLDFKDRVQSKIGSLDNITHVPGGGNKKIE

Turning to `CC(=O)Nc1ccc(C2=NNC(=O)C[C@H]2C)cc1` [OR-1896], at tauK18 [1], the “Inhibition of tau aggregation in vitro (ThS response)” value is given as “did not inhibit tau aggregation in vitro”. In addition, the “Inhibition of tau-BiFC fluorescence increase” value at tau [2] is “did not inhibit the tau-BiFC fluorescence increase”.

Turning to tauK18 fragment (domain or fragment), the percent of total tau as disulfide-linked oligomers (DMSO control) with tauK18 fragment amounted to 50%.

In the case of `CC1CC(=O)NN=C1c1ccc(NN=C(C#N)[14C]#N)cc1` (stereo not shown) [^14C-levosimendan], on tau cysteines, the “Covalent labeling of tau on nonreducing SDS-PAGE (14C-radiography)” value is “covalent attachment to tau”.

On to `C[C@@H]1CC(=O)NN=C1c1ccc(N)cc1` [OR-1855], for which, at tauK18 [1], the “Inhibition of tau aggregation in vitro (ThS response)” value was “did not inhibit tau aggregation in vitro”. Besides, the “Inhibition of tau-BiFC fluorescence increase” value on tau [2] is “did not inhibit the tau-BiFC fluorescence increase”.

Regarding `CN(C)c1ccc2nc3ccc(=[N+](C)C)cc-3sc2c1` [MB, methylene blue], the “Level of disulfide-linked tau oligomers (of total tau)” value on tauK18 [3] worked out at 77.6 ± 2.0%. Further, the “Level of disulfide-linked tau oligomers compared to basal” value on tau [4] (nonreducing SDS-PAGE, control 2.4 ± 0.4-fold) is recorded as 1.6 ± 0.3 fold. For the same molecule, on tau [4] (reducing gel), the “Level of pS199-positive monomers compared to basal” value is 0.2 ± 0.1 fold, the “Level of pS199-positive oligomers compared to basal” value was determined as 0.4 ± 0.2 fold, the “Level of pT205-positive monomers compared to basal” value was 0.1 ± 0.1 fold and the “Level of pT205-positive oligomers compared to basal” value came to 0.7 ± 0.3 fold. In data set [5] (Tau-BiFC^ON by forskolin (30 μM)), the GI50 at 48 h was 6.2 ± 0.4 µM. For the same molecule, the GI50 at 48 h in data set [5] (Tau-BiFC^ON by tauK18^P301L (5 μg/mL)) is 7.1 ± 0.3 µM. Further, the “Number of NeuO-stained live neurons” value in data set [6] (basal 1925 ± 66, control 943 ± 30) was 986 ± 150 neurons. Moreover, the Neurite length entry in data set [6] (control 142.8 ± 17.8 μm) was “did not show a significant effect on neuronal integrity”. For the same molecule, the “Level of disulfide-linked tau oligomers compared to basal” value in the data set on tau [7] was 2.3 ± 0.5 fold. In the data set with Tau-BiFC cells (24 h), the “P1: intact cell population out of total cells” value came to 13.7%. For the same molecule, the “Median BiFC fluorescence intensity of BiFC-responding cells” value in the data set on Tau-BiFC cells (BiFC^ON control […] ± 62, basal 332 ± 110) is recorded as 648 ± 49.
